Reference: PubChem BioAssay (NCI)
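Tested at 5 concentrations; 48 h exposure; 96-well plates; endpoints linearly interpolated, else capped at highest concentration. Here, GI50 denotes the concentration required for 50% inhibition of growth. The concentration for full growth arrest is given as TGI.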

Key:
Assay in all cases: NCI-60 cell line screen, 48 h
A498 renal = system: A498 renal
A549 NSCLC = system: A549 NSCLC
ACHN renal = system: ACHN renal
BT-549 breast = system: BT-549 breast
CAKI-1 renal = system: CAKI-1 renal
CCRF-CEM leukemia = system: CCRF-CEM leukemia
DU-145 prostate = system: DU-145 prostate
EKVX NSCLC = system: EKVX NSCLC
HCC-2998 colon = system: HCC-2998 colon
HCT-116 colon = system: HCT-116 colon
HCT-15 colon = system: HCT-15 colon
HL-60(TB) leukemia = system: HL-60(TB) leukemia
HOP-62 NSCLC = system: HOP-62 NSCLC
HS 578T breast = system: HS 578T breast
HT29 colon = system: HT29 colon
IGROV1 ovarian = system: IGROV1 ovarian
K-562 leukemia = system: K-562 leukemia
KM12 colon = system: KM12 colon
LOX IMVI melanoma = system: LOX IMVI melanoma
M14 melanoma = system: M14 melanoma
MALME-3M melanoma = system: MALME-3M melanoma
MCF7 breast = system: MCF7 breast
MDA-MB-231 breast = system: MDA-MB-231 breast
MDA-MB-435 = system: MDA-MB-435
MOLT-4 leukemia = system: MOLT-4 leukemia
NCI-H226 lung = system: NCI-H226 lung
NCI-H23 lung = system: NCI-H23 lung
NCI-H460 lung = system: NCI-H460 lung
NCI-H522 lung = system: NCI-H522 lung
NCI/ADR-RES ovarian = system: NCI/ADR-RES ovarian
OVCAR-3 ovarian = system: OVCAR-3 ovarian
OVCAR-4 ovarian = system: OVCAR-4 ovarian
OVCAR-5 ovarian = system: OVCAR-5 ovarian
OVCAR-8 ovarian = system: OVCAR-8 ovarian
PC-3 prostate = system: PC-3 prostate
RPMI-8226 leukemia = system: RPMI-8226 leukemia
RXF 393 renal = system: RXF 393 renal
SF-268 CNS = system: SF-268 CNS
SF-295 CNS = system: SF-295 CNS
SF-539 CNS = system: SF-539 CNS
SK-MEL-2 melanoma = system: SK-MEL-2 melanoma
SK-MEL-28 melanoma = system: SK-MEL-28 melanoma
SK-MEL-5 melanoma = system: SK-MEL-5 melanoma
SK-OV-3 ovarian = system: SK-OV-3 ovarian
SN12C renal = system: SN12C renal
SNB-19 CNS = system: SNB-19 CNS
SNB-75 CNS = system: SNB-75 CNS
SR leukemia = system: SR leukemia
SW-620 colon = system: SW-620 colon
T-47D breast = system: T-47D breast
TK-10 renal = system: TK-10 renal
U251 CNS = system: U251 CNS
UACC-257 melanoma = system: UACC-257 melanoma
UACC-62 melanoma = system: UACC-62 melanoma
UO-31 renal = system: UO-31 renal

Work on COc1cc(OC)cc(-c2n/c(=C\c3c(O)[nH]c4ccc(OC)cc34)cc3c2=Nc2ccccc2-3)c1 yielded a GI50 (A498 renal) of 14.8 µM, a TGI (A498 renal) of 34 µM and a GI50 (A549 NSCLC) of 11.6 µM. For the same molecule, the TGI (A549 NSCLC) was 26.1 µM, the GI50 (ACHN renal) was greater than 100 µM and the TGI (ACHN renal) was greater than 100 µM. The GI50 (BT-549 breast) was 2.19 µM, the TGI (BT-549 breast) was 4.7 µM and the GI50 (CAKI-1 renal) was greater than 100 µM. It also gave a TGI (CAKI-1 renal) greater than 100 µM, a GI50 (CCRF-CEM leukemia) of 2.78 µM and a TGI (CCRF-CEM leukemia) of 12.2 µM. The GI50 (DU-145 prostate) was 3.49 µM, the TGI (DU-145 prostate) was 10.7 µM and the GI50 (EKVX NSCLC) was 25.2 µM. It also gave a TGI (EKVX NSCLC) of 80.9 µM, a GI50 (HCC-2998 colon) of 1.87 µM and a TGI (HCC-2998 colon) of 3.51 µM. For the same molecule, the GI50 (HCT-116 colon) was 1.67 µM, the TGI (HCT-116 colon) was 3.16 µM and the GI50 (HCT-15 colon) was 3.85 µM. It also gave a TGI (HCT-15 colon) of 15 µM, a GI50 (HL-60(TB) leukemia) of 16.6 µM and a TGI (HL-60(TB) leukemia) of 36.2 µM. For the same molecule, the GI50 (HOP-62 NSCLC) was 15.6 µM, the TGI (HOP-62 NSCLC) was 34.1 µM and the GI50 (HS 578T breast) was 16.1 µM. For the same molecule, the TGI (HS 578T breast) was 47.7 µM, the GI50 (HT29 colon) was 2.06 µM and the TGI (HT29 colon) was 4.15 µM. It also gave a GI50 (IGROV1 ovarian) of 25.2 µM, a TGI (IGROV1 ovarian) of 68.4 µM and a GI50 (K-562 leukemia) of 2.65 µM. For the same molecule, the TGI (K-562 leukemia) was 6.64 µM, the GI50 (KM12 colon) was 2.58 µM and the TGI (KM12 colon) was 6.21 µM. The GI50 (LOX IMVI melanoma) was 3.1 µM, the TGI (LOX IMVI melanoma) was 12.8 µM and the GI50 (M14 melanoma) was 2.24 µM. It also gave a TGI (M14 melanoma) of 4.18 µM, a GI50 (MALME-3M melanoma) of 2.27 µM and a TGI (MALME-3M melanoma) of 5.42 µM. For the same molecule, the GI50 (MCF7 breast) was 1.4 µM, the TGI (MCF7 breast) was 3.41 µM and the GI50 (MDA-MB-231 breast) was 1.56 µM. The TGI (MDA-MB-231 breast) was 3.26 µM, the GI50 (MDA-MB-435) was 4.12 µM and the TGI (MDA-MB-435) was 29.3 µM. The GI50 (MOLT-4 leukemia) was 2.56 µM, the TGI (MOLT-4 leukemia) was 6.36 µM and the GI50 (NCI-H226 lung) was 26.6 µM. For the same molecule, the TGI (NCI-H226 lung) was 56.9 µM, the GI50 (NCI-H23 lung) was 2.78 µM and the TGI (NCI-H23 lung) was 8.47 µM. The GI50 (NCI-H460 lung) was 2.36 µM, the TGI (NCI-H460 lung) was 5.62 µM and the GI50 (NCI-H522 lung) was 17.8 µM. The TGI (NCI-H522 lung) was 37.2 µM, the GI50 (NCI/ADR-RES ovarian) was 3.66 µM and the TGI (NCI/ADR-RES ovarian) was 18.7 µM. The GI50 (OVCAR-3 ovarian) was 3.45 µM, the TGI (OVCAR-3 ovarian) was 9.67 µM and the GI50 (OVCAR-4 ovarian) was 2.21 µM. It also gave a TGI (OVCAR-4 ovarian) of 5.21 µM, a GI50 (OVCAR-5 ovarian) of 70.2 µM and a TGI (OVCAR-5 ovarian) greater than 100 µM. The GI50 (OVCAR-8 ovarian) was 12.1 µM, the TGI (OVCAR-8 ovarian) was 32.4 µM and the GI50 (PC-3 prostate) was 20.5 µM. It also gave a TGI (PC-3 prostate) of 62.2 µM, a GI50 (RPMI-8226 leukemia) of 8.88 µM and a TGI (RPMI-8226 leukemia) of 72.7 µM. For the same molecule, the GI50 (RXF 393 renal) was 5.65 µM, the TGI (RXF 393 renal) was 27.2 µM and the GI50 (SF-268 CNS) was 10.2 µM. The TGI (SF-268 CNS) was 41.2 µM, the GI50 (SF-295 CNS) was 14.4 µM and the TGI (SF-295 CNS) was 34 µM. The GI50 (SF-539 CNS) was 10.4 µM, the TGI (SF-539 CNS) was 25.4 µM and the GI50 (SK-MEL-2 melanoma) was 20.8 µM. It also gave a TGI (SK-MEL-2 melanoma) of 37.3 µM, a GI50 (SK-MEL-28 melanoma) of 13.5 µM and a TGI (SK-MEL-28 melanoma) of 33.4 µM. For the same molecule, the GI50 (SK-MEL-5 melanoma) was 12.1 µM, the TGI (SK-MEL-5 melanoma) was 25.2 µM and the GI50 (SK-OV-3 ovarian) was 25.8 µM. The TGI (SK-OV-3 ovarian) was 53.3 µM, the GI50 (SN12C renal) was greater than 100 µM and the TGI (SN12C renal) was greater than 100 µM. It also gave a GI50 (SNB-19 CNS) of 5.82 µM, a TGI (SNB-19 CNS) of 27.7 µM and a GI50 (SNB-75 CNS) of 18.5 µM. The TGI (SNB-75 CNS) was 34.3 µM, the GI50 (SR leukemia) was 2.76 µM and the TGI (SR leukemia) was 10.6 µM. It also gave a GI50 (SW-620 colon) of 3.92 µM, a TGI (SW-620 colon) of 22.4 µM and a GI50 (T-47D breast) of 24.6 µM. For the same molecule, the TGI (T-47D breast) was 75.8 µM, the GI50 (TK-10 renal) was 3.82 µM and the TGI (TK-10 renal) was 9.86 µM. For the same molecule, the GI50 (U251 CNS) was 1.93 µM, the TGI (U251 CNS) was 3.84 µM and the GI50 (UACC-257 melanoma) was 23.3 µM. It also gave a TGI (UACC-257 melanoma) of 49.8 µM, a GI50 (UACC-62 melanoma) of 18.3 µM and a TGI (UACC-62 melanoma) of 36 µM. It also gave a GI50 (UO-31 renal) of 41.6 µM and a TGI (UO-31 renal) greater than 100 µM.
